Experimental data reported in the NIST ThermoML archive (doi:10.1021/acs.jced.5b00934).

Details: Liquid, Vibrating tube method

CC(C)(C)O [2-methylpropan-2-ol]
Details | mass density [kg/m3]
303.15 K, 99 kPa | 775.3
303.15 K, 298 kPa | 775.5
303.15 K, 499 kPa | 775.7
303.15 K, 898 kPa | 776.1
303.15 K, 1002 kPa | 776.2
303.15 K, 2007 kPa | 777.1
303.15 K, 3007 kPa | 778.1
303.15 K, 4999 kPa | 780
303.15 K, 7003 kPa | 781.9
303.15 K, 8992 kPa | 783.7
303.15 K, 10005 kPa | 784.6
303.15 K, 11999 kPa | 786.3
308.15 K, 97 kPa | 770.2
308.15 K, 298 kPa | 770.4
308.15 K, 500 kPa | 770.6
308.15 K, 897 kPa | 771
308.15 K, 1002 kPa | 771.1
308.15 K, 2009 kPa | 772.1
308.15 K, 3000 kPa | 773.1
308.15 K, 5006 kPa | 775.1
308.15 K, 9006 kPa | 778.8
308.15 K, 10007 kPa | 779.7
308.15 K, 12005 kPa | 781.5
308.15 K, 15021 kPa | 784.1
308.15 K, 19998 kPa | 788.2
308.15 K, 22003 kPa | 789.8
308.15 K, 24990 kPa | 792.2
308.15 K, 28006 kPa | 794.5
308.15 K, 30005 kPa | 796
308.16 K, 7005 kPa | 777
308.16 K, 18006 kPa | 786.6
313.15 K, 99 kPa | 764.8
313.15 K, 298 kPa | 765
313.15 K, 502 kPa | 765.2
313.15 K, 904 kPa | 765.7
313.15 K, 1009 kPa | 765.8
313.15 K, 2016 kPa | 766.8
313.15 K, 3006 kPa | 767.8
313.15 K, 5010 kPa | 769.9
313.15 K, 7006 kPa | 771.8
313.15 K, 9005 kPa | 773.7
313.15 K, 10007 kPa | 774.7
313.15 K, 12005 kPa | 776.5
313.15 K, 15005 kPa | 779.2
313.15 K, 18003 kPa | 781.8
313.15 K, 20015 kPa | 783.5
313.15 K, 22002 kPa | 785.1
313.15 K, 25007 kPa | 787.5
313.15 K, 28002 kPa | 789.9
313.15 K, 30000 kPa | 791.4
313.15 K, 33001 kPa | 793.7
313.15 K, 33012 kPa | 793.6
313.15 K, 34006 kPa | 794.4
313.15 K, 35008 kPa | 795.1
313.15 K, 38012 kPa | 797.2
313.15 K, 40002 kPa | 798.6
313.15 K, 42007 kPa | 800
313.15 K, 44997 kPa | 802
313.16 K, 32001 kPa | 792.9
318.15 K, 100 kPa | 759.4
318.15 K, 298 kPa | 759.6
318.15 K, 498 kPa | 759.8
318.15 K, 901 kPa | 760.3
318.15 K, 1006 kPa | 760.4
318.15 K, 2001 kPa | 761.5
318.15 K, 3003 kPa | 762.6
318.15 K, 5002 kPa | 764.7
318.15 K, 7005 kPa | 766.7
318.15 K, 8999 kPa | 768.7
318.15 K, 10002 kPa | 769.7
318.15 K, 11999 kPa | 771.6
318.15 K, 15010 kPa | 774.4
318.15 K, 17998 kPa | 777
318.15 K, 20006 kPa | 778.8
318.15 K, 21999 kPa | 780.5
318.15 K, 24994 kPa | 782.9
318.15 K, 28005 kPa | 785.4
318.15 K, 30001 kPa | 787
318.15 K, 32001 kPa | 788.5
318.15 K, 32993 kPa | 789.3
318.15 K, 33002 kPa | 789.3
318.15 K, 34010 kPa | 790
318.15 K, 35001 kPa | 790.8
318.15 K, 38000 kPa | 793
318.15 K, 40010 kPa | 794.4
318.15 K, 42021 kPa | 795.9
318.15 K, 45005 kPa | 797.9
318.15 K, 47997 kPa | 799.9
318.15 K, 49998 kPa | 801.3
318.15 K, 52004 kPa | 802.6
318.15 K, 55002 kPa | 804.6
318.15 K, 57994 kPa | 806.5
318.15 K, 60002 kPa | 807.7
323.15 K, 99 kPa | 753.9
323.15 K, 298 kPa | 754.1
323.15 K, 502 kPa | 754.4
323.15 K, 901 kPa | 754.9
323.15 K, 1004 kPa | 755
323.15 K, 2003 kPa | 756.1
323.15 K, 3002 kPa | 757.2
323.15 K, 5004 kPa | 759.4
323.15 K, 7002 kPa | 761.5
323.15 K, 9002 kPa | 763.5
323.15 K, 10002 kPa | 764.5
323.15 K, 12000 kPa | 766.5
323.15 K, 14999 kPa | 769.3
323.15 K, 17998 kPa | 772.1
323.15 K, 20000 kPa | 773.9
323.15 K, 22000 kPa | 775.7
323.15 K, 25000 kPa | 778.2
323.15 K, 27995 kPa | 780.7
323.15 K, 30002 kPa | 782.4
323.15 K, 32000 kPa | 784
323.15 K, 33000 kPa | 784.7
323.15 K, 33001 kPa | 784.7
323.15 K, 34000 kPa | 785.5
323.15 K, 35004 kPa | 786.2
323.15 K, 38000 kPa | 788.5
323.15 K, 39998 kPa | 790
323.15 K, 41998 kPa | 791.5
323.15 K, 45000 kPa | 793.6
323.15 K, 47996 kPa | 795.7
323.15 K, 50000 kPa | 797.1
323.15 K, 51998 kPa | 798.4
323.15 K, 55006 kPa | 800.5
323.15 K, 57995 kPa | 802.4
323.15 K, 60000 kPa | 803.7
328.15 K, 101 kPa | 748.4
328.15 K, 298 kPa | 748.7
328.15 K, 499 kPa | 748.9
328.15 K, 898 kPa | 749.4
328.15 K, 1005 kPa | 749.5
328.15 K, 2001 kPa | 750.7
328.15 K, 3001 kPa | 751.9
328.15 K, 5001 kPa | 754.1
328.15 K, 7001 kPa | 756.3
328.15 K, 9004 kPa | 758.5
328.15 K, 9999 kPa | 759.5
328.15 K, 11999 kPa | 761.6
328.15 K, 15004 kPa | 764.5
328.15 K, 18006 kPa | 767.4
328.15 K, 19995 kPa | 769.2
328.15 K, 22000 kPa | 771
328.15 K, 24996 kPa | 773.6
328.15 K, 27998 kPa | 776.2
328.15 K, 30005 kPa | 777.9
328.15 K, 32005 kPa | 779.5
328.15 K, 33023 kPa | 780.3
328.15 K, 33038 kPa | 780.4
328.15 K, 34013 kPa | 781.1
328.15 K, 35004 kPa | 781.9
328.15 K, 38002 kPa | 784.3
328.15 K, 40024 kPa | 785.8
328.15 K, 41999 kPa | 787.2
328.15 K, 45002 kPa | 789.4
328.15 K, 47997 kPa | 791.6
328.15 K, 49992 kPa | 793
328.15 K, 55000 kPa | 796.4
328.15 K, 57995 kPa | 798.3
328.15 K, 60003 kPa | 799.6
328.16 K, 51996 kPa | 794.3
333.15 K, 103 kPa | 742.8
333.15 K, 307 kPa | 743.1
333.15 K, 502 kPa | 743.3
333.15 K, 915 kPa | 743.8
333.15 K, 1007 kPa | 744
333.15 K, 2013 kPa | 745.2
333.15 K, 3006 kPa | 746.4
333.15 K, 5002 kPa | 748.8
333.15 K, 7005 kPa | 751.1
333.15 K, 9001 kPa | 753.3
333.15 K, 9999 kPa | 754.3
333.15 K, 12003 kPa | 756.5
333.15 K, 15000 kPa | 759.6
333.15 K, 17995 kPa | 762.5
333.15 K, 19997 kPa | 764.4
333.15 K, 21996 kPa | 766.2
333.15 K, 24994 kPa | 768.9
333.15 K, 27993 kPa | 771.6
333.15 K, 30003 kPa | 773.3
333.15 K, 32004 kPa | 775
333.15 K, 32850 kPa | 775.7
333.15 K, 32871 kPa | 775.7
333.15 K, 34000 kPa | 776.6
333.15 K, 34990 kPa | 777.4
333.15 K, 38004 kPa | 779.8
333.15 K, 39997 kPa | 781.4
333.15 K, 41998 kPa | 782.9
333.15 K, 44909 kPa | 785.1
333.15 K, 48119 kPa | 787.4
